{
  "source": "paper PMC7445162",
  "about": "“De novo design of an intercellular signaling toolbox for multi-channel cell–cell communication and biological computation” (Nature Communications, 2020)",
  "key": {"LuxR [1]": {"molecular_target": "T1, LuxR (Aliivibrio fischeri, UniProt P12746)", "T1 construct": "expressed in E. coli DH5alpha receiver cells; GFP reporter under the Plux* promoter", "T1 sequence (P12746 1-250)": "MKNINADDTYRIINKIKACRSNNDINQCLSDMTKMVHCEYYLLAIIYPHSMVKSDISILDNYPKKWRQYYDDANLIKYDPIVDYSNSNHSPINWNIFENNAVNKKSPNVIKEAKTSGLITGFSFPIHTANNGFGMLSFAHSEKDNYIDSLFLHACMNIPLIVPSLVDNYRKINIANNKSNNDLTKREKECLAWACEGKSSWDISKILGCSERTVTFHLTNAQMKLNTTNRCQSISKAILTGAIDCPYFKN", "test": "GFP reporter dose-response in E. coli, flow cytometry", "format": "cell-based, Escherichia coli", "conditions": "chemically pure signal molecule; M9 medium, 37 °C, 12 h; transcriptional reporter"}, "LuxR [2]": {"molecular_target": "T1, LuxR", "test": "cell-based", "design": "species or system Escherichia coli DH5alpha; E. coli receiver cells, GFP reporter under aTF-responsive promoter, flow cytometry, dose-response with pure synthetic signal molecules", "conditions": "synthetic pure signal, replicate", "from_the_text": "(§1) IV-HSL was chemically synthesized (Supplementary Fig. 21)."}, "FdeR [3]": {"molecular_target": "T2, FdeR (Herbaspirillum seropedicae, UniProt D8J0W4)", "T2 construct": "gene nodD; expressed in E. coli DH5alpha receiver cells; GFP reporter under the cognate promoter", "T2 sequence (D8J0W4 1-309)": "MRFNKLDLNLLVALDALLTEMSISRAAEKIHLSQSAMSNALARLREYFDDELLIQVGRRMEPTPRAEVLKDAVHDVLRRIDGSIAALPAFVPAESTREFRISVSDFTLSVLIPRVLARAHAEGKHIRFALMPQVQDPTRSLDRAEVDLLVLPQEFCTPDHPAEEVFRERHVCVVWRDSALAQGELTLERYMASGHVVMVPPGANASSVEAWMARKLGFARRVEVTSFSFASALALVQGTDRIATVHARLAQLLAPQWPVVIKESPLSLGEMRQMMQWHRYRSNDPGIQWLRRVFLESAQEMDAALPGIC", "test": "GFP reporter dose-response in E. coli, flow cytometry", "format": "cell-based, Escherichia coli"}, "FdeR [4]": {"molecular_target": "T2, FdeR", "test": "cell-based", "design": "species or system Escherichia coli DH5alpha; E. coli receiver cells, GFP reporter under aTF-responsive promoter, flow cytometry, dose-response with pure synthetic signal molecules", "conditions": "synthetic pure signal, replicate", "from_the_text": "as §1"}, "PhlF": {"molecular_target": "T3, PhlF (Pseudomonas protegens, UniProt Q4K422)", "T3 construct": "expressed in E. coli DH5alpha receiver cells; PphlF-sfGFP reporter", "T3 sequence (Q4K422 1-200)": "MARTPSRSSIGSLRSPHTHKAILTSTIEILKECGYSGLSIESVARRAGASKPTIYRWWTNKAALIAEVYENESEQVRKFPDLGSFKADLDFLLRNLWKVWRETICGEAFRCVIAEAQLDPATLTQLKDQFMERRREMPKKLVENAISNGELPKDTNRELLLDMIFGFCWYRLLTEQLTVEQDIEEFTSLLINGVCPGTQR", "test": "cell-based", "design": "species or system Escherichia coli DH5alpha; E. coli receiver cells, GFP reporter under aTF-responsive promoter, flow cytometry, dose-response with pure synthetic signal molecules", "conditions": "synthetic pure signal, replicate", "from_the_text": "as §1"}},
  "note": "Like-named read-outs stand apart in the source and are kept apart here.",
  "data": [
    {"smiles": "CCCC(=O)CC(=O)N[C@H]1CCOC1=O", "note": "[3OC6, 3-oxo-C6-HSL]", "values": [
      {"measurement": "EC50", "setting": "LuxR [1]", "result": 0.02, "unit": "µM"},
      {"measurement": "EC50", "setting": "LuxR [2]; Synthetic [column B]", "result": 0.0108, "unit": "µM"},
      {"measurement": "EC50", "setting": "LuxR [2]; Synthetic [column C]", "result": 0.0329, "unit": "µM"},
      {"measurement": "EC50", "setting": "LuxR [2]; Synthetic [column D]", "result": 0.0148, "unit": "µM"}
    ]},
    {"smiles": "O=C1C[C@@H](c2ccc(O)cc2)Oc2cc(O)cc(O)c21", "note": "[NG, naringenin]", "values": [
      {"measurement": "EC50", "setting": "FdeR [3]", "result": 51, "unit": "µM"},
      {"measurement": "EC50", "setting": "FdeR [4]; Synthetic [column B]", "result": 12.1, "unit": "µM"},
      {"measurement": "EC50", "setting": "FdeR [4]; Synthetic [column C]", "result": 93.8, "unit": "µM"},
      {"measurement": "EC50", "setting": "FdeR [4]; Synthetic [column D]", "result": 47.3, "unit": "µM"}
    ]},
    {"smiles": "CC(=O)c1c(O)cc(O)c(C(C)=O)c1O", "note": "[DAPG, 2,4-diacetylphloroglucinol]", "values": [
      {"measurement": "EC50", "setting": "PhlF; Synthetic [column B]", "result": 18.2, "unit": "µM"},
      {"measurement": "EC50", "setting": "PhlF; Synthetic [column C]", "result": 17.7, "unit": "µM"},
      {"measurement": "EC50", "setting": "PhlF; Synthetic [column D]", "result": 16.3, "unit": "µM"}
    ]}
  ]
}
